Laboratory results: article PMC8011784, “Chronic peptide-based GIP receptor inhibition exhibits modest glucose metabolic changes in mice when administered either alone or combined with GLP-1 agonism” (PLoS ONE, 2021)

Key:
DIO mice [1] = assay: Chronic GIPA-1 study: circulating lipids, liver and fat depots in DIO mice; type: in vivo, mouse; conditions: day 28, n = 10
Experimental: 23-week-old male C57BL/6JRj mice (n = 40), fed a HFD (SSNIFF® diet #12492[60% fat, 20% protein, 20% carbohydrate]) for 14 weeks, were distributed into 4 test groups and received daily either vehicle, liraglutide (0.2 mg/kg/day), GIPA-1 (~4.5 mg/kg/day) or liraglutide + GIPA-1 for 4 weeks while still maintained on HFD. GIPA-1 was delivered using minipumps in order to achieve sufficient GIPR antagonism based on the properties of this peptide (Fig 2A). Liraglutide was dissolved in phosphate-buffered saline (PBS) plus 0.1% bovine serum albumin (BSA) (vehicle 1) and GIPA-1 in DMSO/propylene glycol (50/50 volume per volume) (vehicle 2). 100 μL minipumps (Alzet) were filled with GIPA-1 (30 mg/mL) or vehicle 2 and kept in 0.9% saline at 37°C overnight. The minipump was placed subcutaneously through a 1-cm long incision in the neck with the animal under isoflurane anesthesia. Animals were treated with analgesics on day 0–3 (NSAID, carprofen […] SC QD). From day 0 (first dose) through day 28, mice received one of the following four treatments per day: (1) vehicle 1 (subcutaneous injection (SC)) and continuous infusion of vehicle 2 via osmotic minipump; (2) 0.2 mg/kg liraglutide (SC) and continuous infusion of vehicle 2 via osmotic minipump; (3) vehicle 1 (SC) and continuous infusion of GIPA-1 (~4.5 mg/kg/day; 56.8 nmol/kg/h) via osmotic minipump; and (4) liraglutide (0.2 mg/kg liraglutide, SC) plus continuous infusion of GIPA-1 (~4.5 mg/kg/day) via osmotic minipump. Dose levels of GIPA-1 were based on targeting plasma exposure levels sufficient to antagonise endogenous GIP and selected based on in vitro antagonism data. Fasted (4 hrs) blood glucose and insulin levels were measured on study day -3, 14 and 27. OGTT was performed on day 21 of the study. On the day of the OGTT the fasted animals received their daily doses of vehicles and liraglutide thirty minutes before receiving a glucose bolus (2 g/kg). Blood glucose was measured before their daily dosing and at 0, 15, 30 60, 120, 180 min after glucose administration. Plasma insulin was measured at 0 and 15 min. Whole body weight and food intake were measured throughout the study period. On the termination day (day 28), liver, epididymal fat depot, mesenteric fat depot, retroperitoneal fat depot and inguinal fat depot were dissected and weighted. Blood collected from the tail vein was used for determination of free fatty acids (FFAs) plasma concentration and blood collected via cardiac puncture was used for determination of terminal plasma triglyceride (TG) and total cholesterol (TC).
Fasting blood glucose was measured using a BIOSEN c-Line glucose meter (EKF-Diagnostics), insulin was measured using the Meso Scale Diagnostics platform, TG and TC were measured using commercial kits (Roche Diagnostics) on the Cobas C-501 autoanalyzer (Roche), and FFA levels were measured using a Wako Chemicals kit on the Cobas C-501 autoanalyzer, all according to the manufacturers’ instructions. Homeostatic model assessment of insulin resistance (HOMA-IR) was calculated using the following equation: [fasting serum glucose (mmol/L) × fasting serum insulin (pmol/L) / 22.5] to assess insulin resistance.
Fig 4 The effect of GIPR antagonism alone or in combination with liraglutide on lipid homeostasis in DIO mice. […] Statistical analysis was calculated using one-way ANOVA with Dunnett’s post-hoc test. *: p< 0.05, **: p < 0.01, ***: p < 0.001, ****: p<0.0001 compared to vehicle. […]

DIO mice [2] = assay: Chronic GIPA-2 study: body weight and food intake in DIO mice; type: in vivo, mouse; conditions: 28 days, HFD; liraglutide 0.2 mg/kg SC daily, GIPA-2 10 mg/kg SC daily; n = 10; vs vehicle (combination: vs liraglutide)
Experimental: For studying the chronic effects of GIPA-2, male C57BL/6JRj mice (n = 40) were fed a HFD (SSNIFF® diet #12492) for 43 weeks. DIO mice were randomized (n = 10 per group) based on baseline blood glucose and body weight. Liraglutide was dissolved in PBS plus 0.1% BSA (Vehicle1) and GIPA-2 in PBS (vehicle 2). Mice received one of the following four treatments daily for 28 days while still maintained on HFD: (1) vehicle 1 (SC) and vehicle 2 (SC); (2) 0.2 mg/kg liraglutide (SC) and vehicle 2; (3) vehicle 1 (SC) and 10 mg/kg GIPA-2 (SC); and (4) 0.2 mg/kg liraglutide (SC) plus 10 mg/kg GIPA-2 (SC). […] Fasted (4 hrs) blood glucose and insulin were measured on study day -4, 10 and 26. […] Blood glucose was measured before their daily dosing and at 0, 15, 30 60, 120, 180 and 240 min after glucose administration. […] Blood glucose was measured before their daily dosing and at 0, 15, 30 60, 120, 180 min after glucose administration. […]
Fig 2 Effects of chronic GIPR antagonism on body weight, food intake, and fasting blood glucose and insulin. […] Statistical analysis was calculated using two-way ANOVA with Tukey’s post-hoc test and one-way ANOVA for AUC with Dunnett’s post-hoc test. *: p< 0.05, **: p < 0.01, ***: p < 0.001, ****: p<0.0001 compared to vehicle.

liraglutide
circulating total cholesterol (TC) (DIO mice [1]): significantly reduced circulating TC and liver TG concentrations | liver TG (DIO mice [1]): significantly reduced circulating TC and liver TG concentrations | plasma FFA (DIO mice [1]): no effect on either plasma TG or concentrations of circulating FFA | plasma TG (DIO mice [1]): no effect on either plasma TG or concentrations of circulating FFA | retroperitoneal fat weight (DIO mice [1]): reduced in the GIPA-1 study in both the liraglutide and combination groups | body weight (DIO mice [2]): reduced both body weight and food intake | cumulative food intake (DIO mice [2]): reduced both body weight and food intake
